# Results taken from patent publication US20220396569A1 (Carmot Therapeutics, Inc., priority 2021, published 2022).
# Target: T1, human GLP-1 receptor (Homo sapiens, UniProt P43220)
# T1 construct: expressed in transfected cells
# Assay: GLP-1R cAMP Assay (HitHunter cAMP accumulation)
# Format: cell-based
# Conditions: cAMP accumulation, CHO cells stably overexpressing human GLP-1 receptor, 30 min treatment; read-out: EC50
# Summary of the method: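 CHO cells stably expressing human GLP-1R, 10,000 cells/well in HBSS with 10 mM HEPES and 625 μM IBMX, were mixed with anti-cAMP antibody reagent. Compound was applied as a 20-point dose response in triplicate for 30 min. After lysis and overnight detection, luminescence was read and dose-response curves analysed.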
# T1 sequence (P43220 24-463): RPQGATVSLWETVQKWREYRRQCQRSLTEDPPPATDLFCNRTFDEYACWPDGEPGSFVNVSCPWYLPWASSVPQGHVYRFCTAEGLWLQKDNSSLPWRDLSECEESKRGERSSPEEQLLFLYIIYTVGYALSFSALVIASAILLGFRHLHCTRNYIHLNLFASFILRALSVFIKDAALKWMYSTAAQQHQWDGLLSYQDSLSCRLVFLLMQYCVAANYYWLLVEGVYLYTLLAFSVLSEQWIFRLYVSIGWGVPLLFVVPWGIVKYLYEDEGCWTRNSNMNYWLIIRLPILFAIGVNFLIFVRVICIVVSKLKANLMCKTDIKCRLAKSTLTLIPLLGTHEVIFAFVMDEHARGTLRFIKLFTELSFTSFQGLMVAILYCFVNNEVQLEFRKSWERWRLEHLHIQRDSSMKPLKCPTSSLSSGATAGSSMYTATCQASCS
row,Compound,EC50 [nM]
1,"O=C(O)c1ccc2nc(CN3CC=C(c4cccc(COc5ccc(Cl)cc5F)c4F)C3)n(C[C@@H]3CCO3)c2c1 [Compound 426, 2-[(3-{3-[(4-chloro-2-fluorophenoxy)methyl]-2-fluorophenyl}-2,5-dihydro-1H-pyrrol-1-yl)methyl]-1-{[(2S)-oxetan-2-yl]methyl}-1H-1,3-benzodiazole-6-carboxylic acid]",50 to 500
2,"O=C(O)c1ccc2nc(CN3CC[C@H](c4ccc(F)c(COc5ccc(Cl)cc5F)c4)C3)n(C[C@@H]3CCO3)c2c1 [Compound 448, 2-{[(3R)-3-{3-[(4-chloro-2-fluorophenoxy)methyl]-4-fluorophenyl}pyrrolidin-1-yl]methyl}-1-{[(2S)-oxetan-2-yl]methyl}-1H-1,3-benzodiazole-6-carboxylic acid]",50 to 500
3,"N#Cc1ccc(OCc2cccc(C3=CCN(Cc4nc5ccc(C(=O)O)cc5n4C[C@@H]4CCO4)C3)c2)c(F)c1 [Compound 400, 2-[(3-{3-[(4-cyano-2-fluorophenoxy)methyl]phenyl}-2,5-dihydro-1H-pyrrol-1-yl)methyl]-1-{[(2S)-oxetan-2-yl]methyl}-1H-1,3-benzodiazole-6-carboxylic acid]",< 50
4,"CCn1cncc1Cn1c(CN2CC(=Cc3ccnc(COc4ccc(Cl)cc4Cl)c3)C2)nc2ccc(C(=O)O)cc21 [Compound 175, 2-{[3-({2-[(2,4-dichlorophenoxy)methyl]pyridin-4-yl}methylidene)azetidin-1-yl]methyl}-1-[(1-ethyl-1H-imidazol-5-yl)methyl]-1H-1,3-benzodiazole-6-carboxylic acid]",< 50
5,"O=C(O)c1ccc2nc(CN3CC=C(c4cc(COc5ccc(Cl)cc5F)ncc4F)C3)n(C[C@@H]3CCO3)c2c1 [Compound 440, 2-[(3-{2-[(4-chloro-2-fluorophenoxy)methyl]-5-fluoropyridin-4-yl}-2,5-dihydro-1H-pyrrol-1-yl)methyl]-1-{[(2S)-oxetan-2-yl]methyl}-1H-1,3-benzodiazole-6-carboxylic acid]",< 50
6,"O=C(O)c1cc(F)c2nc(CN3CC[C@@H](c4ccnc(COc5ccc(Cl)cc5F)c4)C3)n(C[C@@H]3CCO3)c2c1 [Compound 428, 2-{[(3S)-3-{2-[(4-chloro-2-fluorophenoxy)methyl]pyridin-4-yl}pyrrolidin-1-yl]methyl}-4-fluoro-1-{[(2S)-oxetan-2-yl]methyl}-1H-1,3-benzodiazole-6-carboxylic acid]",< 50
7,N#Cc1ccc(OCc2nc(N3CC[C@@H](Cc4nc5c(F)cc(C(=O)O)cc5n4C[C@@H]4CCO4)C3)ccc2F)c(F)c1 [Compound 534],< 50
8,O=C(O)c1cc(F)c2nc(CN3CC=C(c4cc(COc5ccc(Cl)cc5F)ncc4F)C3)n(C[C@@H]3CCO3)c2c1 [Compound 452],< 50
9,"O=C(O)c1ccc2nc(Cc3ccc(Oc4cccc(COc5ccc(Cl)cc5F)n4)cc3F)n(C[C@@H]3CCO3)c2c1 [Compound 464, 2-{[4-({6-[(4-chloro-2-fluorophenoxy)methyl]pyridin-2-yl}oxy)-2-fluorophenyl]methyl}-1-{[(2S)-oxetan-2-yl]methyl}-1H-1,3-benzodiazole-6-carboxylic acid]",< 50
10,"Cc1cc(Oc2ccnc(COc3ccc(C#N)cc3F)n2)ccc1Cc1nc2c(F)cc(C(=O)O)cc2n1C[C@@H]1CCO1 [Compound 540, (S)-2-(4-((2-((4-Cyano-2-fluorophenoxy)methyl)pyrimidin-4-yl)oxy)-2-methylbenzyl)-4-fluoro-1-(oxetan-2-ylmethyl)-1H-benzo[d]imidazole-6-carboxylic acid]",< 50
11,"O=C(O)c1ccc2nc(CN3CC=C(c4cc(COc5ccc(Cl)cc5F)ccn4)C3)n(Cc3ncco3)c2c1 [Compound 394, 2-[(3-{4-[(4-chloro-2-fluorophenoxy)methyl]pyridin-2-yl}-2,5-dihydro-1H-pyrrol-1-yl)methyl]-1-[(1,3-oxazol-2-yl)methyl]-1H-1,3-benzodiazole-6-carboxylic acid]",50 to 500

# The next lines start with the values.
row,EC50 [nM],Compound
1,50 to 500,"CC1(c2ccc(Cl)cn2)Oc2cccc(CC3CCN(Cc4nc5ccc(C(=O)O)cc5n4C[C@@H]4CCO4)CC3)c2O1 (stereo partly drawn) [Example 173, 2-((4-((2-(5-Chloropyridin-2-yl)-2-methylbenzo[d][1,3]dioxol-4-yl)methyl)piperidin-1-yl)methyl)-1-(((S)-oxetan-2-yl)methyl)-1H-benzo[d]imidazole-6-carboxylic acid]"
2,< 50,"Cc1cc(Oc2ccnc(COc3ccc(C#N)cc3F)n2)ccc1Cc1nc2ccc(C(=O)O)cc2n1C[C@@H]1CCO1 [Compound 541, 2-{[4-({2-[(4-cyano-2-fluorophenoxy)methyl]pyrimidin-4-yl}oxy)-2-methylphenyl]methyl}-1-{[(2S)-oxetan-2-yl]methyl}-1H-1,3-benzodiazole-6-carboxylic acid]"
3,< 50,"O=C(O)c1ccc2nc(CN3CC=C(c4cncc(COc5ccc(Cl)cc5F)n4)C3)n(C[C@@H]3CCO3)c2c1 [Example 396, (S)-2-((3-(6-((4-Chloro-2-fluorophenoxy)methyl)pyrazin-2-yl)-2,5-dihydro-1H-pyrrol-1-yl)methyl)-1-(oxetan-2-ylmethyl)-1H-benzo[d]imidazole-6-carboxylic acid]"
4,< 50,C[C@H]1[C@@H](Oc2ccnc(COc3ccc(F)cc3F)n2)CN1Cc1nc2ccc(C(=O)O)cc2n1C[C@@H]1CCO1 [Compound 548]
5,< 50,"O=C(O)c1ccc2nc(CN3CC=C(c4cnc(COc5ccc(Cl)cc5Cl)o4)C3)n(C[C@@H]3CCO3)c2c1 [Example 474, (S)-2-((3-(2-((2,4-Dichlorophenoxy)methyl)oxazol-5-yl)-2,5-dihydro-1H-pyrrol-1-yl)methyl)-1-(oxetan-2-ylmethyl)-1H-benzo[d]imidazole-6-carboxylic acid]"
6,< 50,"C[C@H]1[C@@H](Oc2ccnc(COc3ccc(C#N)cc3F)n2)CN1Cc1nc2c(F)cc(C(=O)O)cc2n1C[C@@H]1CCO1 [Compound 546, 2-{[(2S,3S)-3-({2-[(4-cyano-2-fluorophenoxy)methyl]pyrimidin-4-yl}oxy)-2-methylazetidin-1-yl]methyl}-4-fluoro-1-{[(2S)-oxetan-2-yl]methyl}-1H-1,3-benzodiazole-6-carboxylic acid]"
7,< 50,"N#Cc1ccc(OCc2cc([C@H]3CCN(Cc4nc5c(F)cc(C(=O)O)cc5n4C[C@@H]4CCO4)C3)ccc2F)c(F)c1 (single isomer, unassigned) [Example 449]"
8,< 50,"O=C(O)c1ccc2nc(CN3CC[C@@H](c4cccc(COc5ccc(Cl)cc5F)c4)C3)n(C[C@@H]3CCO3)c2c1 (single isomer, unassigned) [Example 411]"
